Values quoted from earlier work as cited in patent US20100272800A1 (SANOVEL ILAC SANAYI VE TICARET ANONIM SIRKETI, priority 2009, published 2010).

SMILES: Cc1cc2c(s1)Nc1ccccc1N=C2N1CCN(C)CC1 [Olanzapine, 2-methyl-4-(4-methyl-1-piperazinyl)-10H-thieno[2,3-b][1,5] benzodiazepine]
- solubility in water: practically insoluble in water
